Values joined by “and” are separate entries in the source; they are usually repeats but may differ in a detail not shown here. Identical values can stand only once. Like-named read-outs stand apart in the source and are kept apart here.
Tests used:
PAEC [1] = test: Nitric oxide production (Greiss assay, DAF-FM diacetate staining); type: cell-based, Porcine; conditions: H2O2 exposure, limited length of experimentation
From the text: Nitric oxide production was quantified via Greiss assay and intracellular staining with DAF-FM diacetate.

[2] = system: Porcine aortic endothelial cells (PAEC); conditions: shear 24.4 ml/min (2.2 dynes/cm2), 100 μM H2O2, 1.5 hours
Experimental: The flow system provided for oscillatory, laminar flow across the sample. […] Due to these factors, an increase in concentration to 100 μM H2O2 was necessary for experimentation under shearing conditions.
An Immunetics flow cell (Li et al., 1996) was prepared by first flushing the fluid path with deionized water and then phenyl red free M199. After flushing, 50 ml of the circulating medium was added and allowed to perfuse for 5 minutes while warming to 37° C. PAEC were then placed in the flow cell and the flow cell was secured to the microscope stage. Endothelial cells were maintained at 37° C. by fluid flow through a water bath (Precision, Winchester, Va.), at a flow rate of 24.4 ml/min (2.2 dynes/cm2), for 1.5 hours under 100 μM H2O2 in circulating medium. The PAEC not exposed to H2O2 were subjected to the same flow rate in serum free and phenyl red free M199 without H2O2. […] The experiment was conducted under constant imaging, with images being captured at 0, 15, 30, 60, and 90 minutes. […] All fluorescent images were acquired with phenyl red free media to eliminate interference of phenyl red and FBS in fluorescent imaging.

PAEC [3] = type: cell-based, Porcine
Experimental: An Immunetics cell adhesion chamber (Cambridge, Mass.) was utilized to determine PAEC behavior under shearing conditions. […] PAEC were exposed to a constant flow rate of 24.4 ml/min (2.2 dynes/cm^2) for 1.5 hours. Maintenance of PAEC at 37° C. was achieved by using a fluid reservoir contained in a constant temperature water bath (Precision). Challenged PAEC were exposed to 100 μM H2O2 in serum-free and phenyl red free M199; control PAEC were exposed to serum-free and phenyl red free M199 without H2O2.
After 1 hour of incubation, 2 μM dihydroethidium was added to the media reservoir.
Hydroethidium was used to examine superoxide production of infected and non-infected PAEC under H2O2 induced oxidative stress. PAEC on glass slides were subjected to laminar flow at 24.4 ml/min (2 dynes/cm^2). The circulating fluid contained 2 μM dihydroethidium as a marker for superoxide production.

PAEC [4] = conditions: 500 μM H2O2, 1 hour
Experimental: PAEC were cultured and infected as previously described. Forty-eight hours after infection, PAEC were incubated for 1 hour under 500 μM H2O2 in serum-free M199; control groups were incubated in serum-free M199. […] After incubation, 3 μM propidium iodide (PI) was added to each sample and incubated for 8 minutes. Samples were then washed with serum-free M199 and imaged at an exposure of 2500 ms. All fluorescent images were acquired in phenyl-red free media.

PAEC [5] = test: Determination of intracellular superoxide by DHE, static culture (Example 2); type: cell-based, Porcine; conditions: for % of cells with fluorescent nuclei, hydrogen peroxide exposed sample with inhibitor: 60 μM H2O2; for % of cells with fluorescent nuclei, hydrogen peroxide exposed sample with inhibitor / % cells with fluorescent nuclei, control sample cultured with inhibitor: apocynin 0.25 μM; for % cells with fluorescent nuclei, control sample cultured with inhibitor: no H2O2
Experimental: Adenoviral-mediated gene transfer was conducted by infection of endothelial cells (85-95% confluence, University of Iowa Cardiovascular Research Center Cell Culture Facility) as previously described (Fang et al., 1998). Ad5CMVSOD2, Ad5CMVeNOS, and Ad5CMVeGFP were acquired from the University of Iowa Gene Transfer Vector Core (REF); Ad5CMVeGFP was used as a negative control. Porcine aortic endothelial cells were incubated with 125 PFU/cell MnSOD/eNOS/eGFP adenovirus in serum-free M199. To improve the efficiency of adenoviral uptake, the adenoviral stock was incubated for 30 minutes prior to addition to cell cultures (Kossila et al., 2002). Infected PAEC were incubated under standard conditions. After 3 hours, the virus-containing solution was removed, samples were washed with serum-free M199, and M199 supplemented with 1% Penicillin-Streptomycin and 2% FBS was added. After 45 hours of incubation (48 hours after initiation of infection) cells were prepared for experimentation.
Incubation continued for an additional 30 minutes with 2 μM dihydroethidium (Miller et al., 1998; Carter et al., 1994) (DHE, Molecular Probes). […] Images were captured using a Zeiss Axiovert S100 fluorescent microscope. Images were collected at a standard exposure of 4500 ms.
Image analysis was conducted with Slidebook 4 Imaging Software (company). Statistical analyses were conducted using the Student's t-Test assuming unequal variance. Values are reported as mean±standard error of the mean (SEM).

PAEC [6] = test: L-NAME inhibition of eNOS, superoxide by DHE, static; type: cell-based, Porcine
Experimental: In order to ascertain the role of eNOS in endothelial cell superoxide production, the presence of superoxide was probed in the presence of L-NAME. […] After incubation, 2 μM DHE was added to each sample and incubated for 30 minutes. […] Image analysis was conducted with Slidebook 4 Imaging Software (company). Statistical analyses were conducted using the Student's t-Test assuming unequal variance. Values are reported as mean±standard error of the mean (SEM).

[7] = system: Porcine aortic endothelial cells (PAEC); conditions: static
PAEC [8] = test: Determination of eNOS couple state with ascorbic acid, superoxide by DHE, static; type: cell-based, Porcine; conditions: 60 μM H2O2, 1 mM ascorbic acid
Experimental: In order to ascertain the role of the coupled state of eNOS in endothelial cell superoxide production, the presence of superoxide was probed in the presence of ascorbic acid. […] After incubation, 2 μM DHE was added to each sample and incubated for 30 minutes.

## OO [H2O2, hydrogen peroxide]
PAEC [1]
  NO production (DAF-AM acetate intracellular staining): no significant increases
[2]
  % of PAEC exposed to H2O2 demonstrating intracellular superoxide: 49.5±3.3%
PAEC [3]
  % of cells with fluorescent nuclei, challenged PAEC (non-infected): 50.3±4.1%
  fold increase in percent of superoxide producing cells, non-infected control vs H2O2 stressed: 30 fold
PAEC [4]
  percent of cells with ruptured cellular membranes: ten
  percent propidium iodide positive cells, challenged PAEC: more than ninety
PAEC [5]; static culture
  fold increase in percent of superoxide producing cells, control vs H2O2 stressed: 10 fold
PAEC [5]; static, H2O2 challenged PAEC (60 μM H2O2)
  % of cells having fluorescent nuclei: 51.8±1.1%
PAEC [6]; 60 μM H2O2, no L-NAME
  % cells with fluorescent nuclei, challenged non-inhibited group: 23.8±3.8%
[7]; 3 μM H2O2, 1.5 hour exposure, 2.0 μM DHE
  % of PAEC exposed to H2O2 demonstrating intracellular superoxide: 1.2±0.2%
[7]; 30 μM H2O2, 1.5 hour exposure, 2.0 μM DHE
  % of PAEC found to produce intracellular superoxide: 77.1±5.5%
[7]; 1 mM H2O2
  % of PAEC exhibiting fluorescent nuclei: 76.1±6.8%
[7]; increasing H2O2 concentration, most notably at 1 mM
  cell membrane integrity of PAEC: loss in cell membrane integrity in a dose dependant manner

## COC(=O)[C@@H](N)CCCNC(=N)N[N+](=O)[O-] [L-NAME, N^G-nitro-L-arginine methyl ester]
PAEC [6]; no H2O2, 1 mM L-NAME
  % cells with fluorescent nuclei, control with eNOS inhibition: 2.2±0.5% and 2.9±0.3%

## Oc1ncnc2[nH]ncc12 [allopurinol]
PAEC [5]; static
  % of cells with fluorescent nuclei, hydrogen peroxide exposed sample with inhibitor: 35.6±1.3%
  % cells with fluorescent nuclei, control sample cultured with inhibitor: 4.1±0.4%

## COc1cc(C(C)=O)ccc1O [apocynin, Apocynin]
PAEC [5]; apocynin 0.5 mM
  effect on superoxide production: minimal effects
PAEC [5]; static
  % of cells with fluorescent nuclei, hydrogen peroxide exposed sample with inhibitor: 35.1±2.0%
  % cells with fluorescent nuclei, control sample cultured with inhibitor: 14.2±1.3%

## O=C1O[C@H]([C@@H](O)CO)C(O)=C1O [ascorbic acid, Ascorbic Acid]
PAEC [8]
  superoxide production in presence of ascorbic acid: almost completely inhibited

## CC(C(=O)O)c1ccc(-c2ccccc2)c(F)c1 (stereo not shown) [flurbiprofen]
PAEC [5]; static
  % of cells with fluorescent nuclei, hydrogen peroxide exposed sample with inhibitor: 46.8±1.4%
  % cells with fluorescent nuclei, control sample cultured with inhibitor: 3.9±0.4%

Source: US20080033040A1, “Methods And Compositions For Screening Involving Endothelial Cells Under Shearing Conditions” (priority 2004, published 2008)
